2 molecules from patent US20230365602A1, “COMPOUND FOR USE IN THE TREATMENT OF PROTOZOAL DISEASES AND PROCESS FOR PRODUCTION OF SAID COMPOUND” (QUADREL S.R.L., priority 2020, published 2023) can be followed below.

One may read the inhibition as the change of the read-out against control, counted positive when it falls.

Molecules are shown by their SMILES. Like-named read-outs stand apart in the source and are kept apart here.

A short description of one data set: Human plasma stability. It is filed as in vitro ADME. The following applies: samples at 0, 15, 30, 45, 60, 120 minutes. The procedure: Furthermore, compound 19 is stable in human hepatic microsomes (samples were taken at 0, 5, 15, 30, 45 minutes) (Table 8), while the human plasma stability is 99.7% (samples were taken at 0, 15, 30, 45, 60, 120 minutes).
The nature of data set [1]: Biodistribution in tissues 72 h after oral gavage. The format is in vivo, mice. Particulars: for Kp at 72 h / concentration at 72 h: BALB/c (Compound 19), NMRI (miltefosine), mouse; for Kp at 72 h: 72 h after 20 mg/kg oral gavage. The procedure: Blood samples were collected from the tail vein at 0, 0.5, 0.75, 1, 3, 24 and 72 hours into heparinized tubes. Moreover, biodistribution of the molecule, 72h after administration, was determined in several organs of the treated mice, namely brain, liver, spleen, kidney, heart and bone marrow. […] J Chromatogr B, 865: 55-62) by liquid chromatography mass spectrometry (LC-MS/MS).

The test system of data set [2] is Salmonella TA98 (frameshift mutations). The format is cell-based. The method, then: The test has been performed in duplicate as separate experiments (Table 9). Two different Salmonella strains were tested; TA98 (frameshift mutations) and TA100 (base pair substitutions, primarily at one of the GC pairs). Values above 15 represent genotoxicity.
A further data set concerns the target Aurora B kinase (Homo sapiens, UniProt Q96GD4). Briefly: Early toxicity: Aurora B kinase inhibition. The format is biochemical. Particulars: Table 5.
In data set [3] the target is T1, hERG channel (Homo sapiens, UniProt Q12809). Briefly: Early toxicity: hERG inhibition. On the technique in general: The hERG channel carries a current that helps repolarise heart muscle cells.
Data set [4] relates to L. infantum axenic amastigotes expressing luciferase. Kind of data set: In vivo model of infection with L. infantum axenic amastigotes expressing luciferase. Particulars: ten consecutive oral treatments with 10 mg/kg, 2 weeks after last treatment. The method, then:
FIG. 4 illustrates the in vivo activity of compounds 18 and 19 in a model of infection with L. infantum axenic amastigotes expressing luciferase (10 consecutive treatments with 10 mg/kg of each compound, evaluated by limiting dilution assay 2 weeks after the last treatment).
In vivo activity of compounds 18 and 19 (ten consecutive oral treatments with 10 mg/kg of each compound, followed by a break of 2 weeks after last treatment), was studied in a model of infection with axenic amastigotes expressing luciferase, essentially as described in (Mendes Costa D. et al, J. Sci Rep. 2019 Dec. 12; 9(1):18989; Tavares J. et al., Methods Mol Biol. 2019; 1971:289-301). (FIG. 4).

Data set [5] addresses T1, hERG channel.

T1 sequence (Q12809 whole entry): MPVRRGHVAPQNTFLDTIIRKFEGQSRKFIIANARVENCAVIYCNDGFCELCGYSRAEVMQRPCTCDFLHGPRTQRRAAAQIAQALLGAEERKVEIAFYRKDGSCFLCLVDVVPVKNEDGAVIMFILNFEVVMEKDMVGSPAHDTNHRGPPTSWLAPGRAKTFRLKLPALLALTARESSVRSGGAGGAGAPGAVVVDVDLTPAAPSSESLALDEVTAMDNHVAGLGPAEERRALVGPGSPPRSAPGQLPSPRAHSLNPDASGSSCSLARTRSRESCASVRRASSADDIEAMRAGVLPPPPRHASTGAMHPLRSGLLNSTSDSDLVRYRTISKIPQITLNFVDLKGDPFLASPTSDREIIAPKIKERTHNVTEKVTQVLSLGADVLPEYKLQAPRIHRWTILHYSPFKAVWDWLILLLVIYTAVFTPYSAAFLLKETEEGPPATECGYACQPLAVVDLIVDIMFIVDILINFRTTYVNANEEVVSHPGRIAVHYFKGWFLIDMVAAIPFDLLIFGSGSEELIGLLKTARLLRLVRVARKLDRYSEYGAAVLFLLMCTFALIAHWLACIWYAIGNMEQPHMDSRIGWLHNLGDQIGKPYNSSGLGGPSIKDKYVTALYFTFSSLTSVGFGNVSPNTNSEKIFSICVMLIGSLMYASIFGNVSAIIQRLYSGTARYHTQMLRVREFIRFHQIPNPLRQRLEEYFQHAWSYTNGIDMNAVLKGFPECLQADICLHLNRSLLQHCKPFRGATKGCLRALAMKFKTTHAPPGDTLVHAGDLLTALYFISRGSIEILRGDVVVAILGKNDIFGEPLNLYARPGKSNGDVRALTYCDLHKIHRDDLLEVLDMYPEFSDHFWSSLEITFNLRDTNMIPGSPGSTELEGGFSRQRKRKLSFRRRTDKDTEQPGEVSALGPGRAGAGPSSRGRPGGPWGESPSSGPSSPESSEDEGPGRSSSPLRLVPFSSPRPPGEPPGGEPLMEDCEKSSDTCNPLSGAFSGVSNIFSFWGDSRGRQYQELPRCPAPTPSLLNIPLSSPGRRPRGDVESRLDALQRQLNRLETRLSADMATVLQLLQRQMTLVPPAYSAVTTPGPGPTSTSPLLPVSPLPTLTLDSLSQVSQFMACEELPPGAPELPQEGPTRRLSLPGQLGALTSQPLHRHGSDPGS
Chain of Aurora B kinase (Q96GD4 whole entry): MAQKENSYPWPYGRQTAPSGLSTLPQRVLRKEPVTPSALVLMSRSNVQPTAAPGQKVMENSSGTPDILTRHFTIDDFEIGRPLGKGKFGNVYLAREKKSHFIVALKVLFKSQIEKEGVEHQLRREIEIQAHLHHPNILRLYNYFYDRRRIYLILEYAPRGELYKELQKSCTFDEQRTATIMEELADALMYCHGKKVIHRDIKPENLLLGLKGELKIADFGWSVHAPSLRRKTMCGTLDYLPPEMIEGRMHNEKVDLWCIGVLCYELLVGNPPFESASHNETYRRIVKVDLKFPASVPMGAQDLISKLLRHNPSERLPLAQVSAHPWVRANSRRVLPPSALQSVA

Consider `C[N+](C)(C)CCOP(=O)([O-])OCCCCCC1CCCCCCCCCCCCCC1` [Compound 19, 5-cyclopentadecylpentyl (2-(trimethylammonio)ethyl) phosphate], for which, in the data set “Human plasma stability”, the “Human plasma Metabolic stability (%)” value is 99.7%. In data set [1] (72 hours after 20 mg/kg oral gavage), the “times less concentration in plasma than miltefosine” value was determined as 6.5 times. Moreover, the Kp at 72 h was 0.09 in data set [1] (bone marrow, read-out: Tissue/Plasma ratio Bone marrow); 0.248 in data set [1] (brain, read-out: Tissue/Plasma ratio Brain); 0.55 in data set [1] (heart, read-out: Tissue/Plasma ratio Heart); 18.9 in data set [1] (kidney, read-out: Tissue/Plasma ratio Kidney); 5.36 in data set [1] (liver, read-out: Tissue/Plasma ratio Liver); 1.06 in data set [1] (spleen, read-out: Tissue/Plasma ratio Spleen). Further, the concentration at 72 h in data set [1] (bone marrow, 72 hours after 20 mg/kg oral gavage, read-out: Bone marrow) was found to be 200 ng/g; in data set [1] (brain, 72 hours after 20 mg/kg oral gavage, read-out: Brain), 540 ± 610 ng/g; in data set [1] (heart, 72 hours after 20 mg/kg oral gavage, read-out: Heart), 1200 ± 900 ng/g; in data set [1] (kidney, 72 hours after 20 mg/kg oral gavage, read-out: Kidney), 41100 ± 15800 ng/g; in data set [1] (liver, 72 hours after 20 mg/kg oral gavage, read-out: Liver), 11600 ± 880 ng/g; in data set [1] (plasma, 72 hours after 20 mg/kg oral gavage, read-out: Plasma) it was 2170 ± 550 ng/mL. Also, in data set [1] (spleen, 72 hours after 20 mg/kg oral gavage, read-out: Spleen), the concentration at 72 h was determined as 2310 ± 710 ng/g. For the same molecule, the “Ames mutagenicity TA98 (values above 15 represent genotoxicity)” value in data set [2] (3.125 μM) worked out at 11.0 ± 8.48; in data set [2] (6.25 μM) it was 13.0 ± 2.83; in data set [2] (12.5 μM), 12.5 ± 4.95; in data set [2] (25 μM), 6.5 ± 3.53; in data set [2] (50 μM), 11 ± 2.82; in data set [2] (100 μM) it was 11.0 ± 1.41. In data set [2] (up to 100 μM), the “mutagenicity, TA98” value was “does not exhibit mutagenicity”. The inhibition at 10 µM against Aurora B kinase is -9.92 ± 8.99%; against hERG channel [3] (human), 4.06 ± 2.07%. Further, the “Flag for Interference, hERG” value on hERG channel [3] (Table 4b) is given as “(no)”. Besides, the “parasites in the bone marrow” value in data set [4] is listed as “under the detection limit”.

For the molecule `CCCCCCCCCCCCCCCCOP(=O)([O-])OCC[N+](C)(C)C` [Miltefosine, hexadecylphosphocholine, reference compound], at hERG channel [5], the “Flag for Interference, hERG” value is recorded as “(no)”.
